# Test results taken from patent publication US20260374818A1, “CATIONIC PEPTIDES WITH BROAD SPECTRUM ACTIVITY” (priority 2023, published 2026).
# Where a SMILES comes first, the peptide text is derived from it. [ ]: non-standard residue; d: D form.
# Assays:
# [1] = system: MRSA USA300 biofilms; assay: Biofilm inhibition by >95% pure peptides (crystal violet), MRSA; assay type: cell-based, methicillin resistant Staphylococcus aureus; conditions: for minimum inhibitory concentration of peptide that inhibited at least 90% of biofilm growth (MBIC90): MRSA USA300 biofilms, >95% pure peptides, 10% TSB + 0.1% glucose; for IC50: MRSA, 24 hours
# [2] = system: MRSA preformed biofilms; assay: Biofilm eradication of 24-hr preformed biofilms (TTC metabolic dye), MRSA; assay type: cell-based, methicillin resistant Staphylococcus aureus; conditions: 24-hr preformed biofilms treated overnight
# [3] = system: P. aeruginosa PAO1; assay: MIC (broth microdilution) of peptides, P. aeruginosa; assay type: cell-based, Pseudomonas aeruginosa; conditions: mode of three biological replicates
# Description: (§1) Minimal inhibitory concentration (MIC) against planktonic bacteria: The MIC of the synthetic peptides was determined in Mueller-Hinton broth (MHB) using the broth microdilution method described previously [Wiegand, I., Hilpert, K., & Hancock, R. E. (2008). Agar and broth dilution methods to determine the minimal inhibitory concentration (MIC) of antimicrobial substances. Nature Protocols, 3(2), 163-175]. Briefly, 10 μl of a 10× concentrated peptide solution was placed in the bottom of a well in a 96-well polypropylene round bottom plate (Corning Inc.). A bacterial suspension of ~5×10^5 CFU/ml was prepared from an overnight culture and 90 μl of this was added to each well. […] Bacteria tested included P. aeruginosa PAO1, MRSA USA300 LAC, Staphylococcus haemolyticus, Staphylococcus epidermidis, Klebsiella pneumoniae and Streptococcus salivarius.
# (§2) Finally, the AB103-D derivatives that were the least aggregation prone and which produced the lowest toxic effects in vivo were evaluated for their direct antibacterial activity towards several pathogens of clinical relevance using a standard minimum inhibitory concentration (MIC) assay [Wiegand, I., Hilpert, K., & Hancock, R. E. (2008). Agar and broth dilution methods to determine the minimal inhibitory concentration (MIC) of antimicrobial substances. Nature Protocols, 3(2), 163-175]. Specifically, peptides AB110-D, AB111-D, AB114-D and AB115-D were tested against P. aeruginosa PAO1, MRSA USA 300, Staphylococcus haemolyticus, Staphylococcus epidermidis, Klebsiella pneumoniae and Streptococcus salivarius and compared against the antibacterial activity of DJK-5 and AB103-D (Table 7). Overall, the antibacterial potency of all of the AB103-D derivatives was stronger than that seen for DJK-5, particularly in the case of the Gram-negative pathogens P. aeruginosa and K. pneumoniae. […]
# [4] = system: Staphylococcus epidermidis; assay: MIC (broth microdilution) of peptides, S. epidermidis; assay type: cell-based; conditions: mode of three biological replicates
# Description: as §1, §2
# [5] = system: Klebsiella pneumoniae; assay: MIC (broth microdilution) of peptides, K. pneumoniae; assay type: cell-based; conditions: mode of three biological replicates
# Description: as §1, §2
# [6] = system: Streptococcus salivarius; assay: MIC (broth microdilution) of peptides, S. salivarius; assay type: cell-based; conditions: mode of three biological replicates
# Description: as §1, §2
# [7] = system: Klebsiella pneumonia KPLN649; assay: Biofilm inhibition (at least 80%), K. pneumonia; assay type: cell-based; conditions: K. pneumoniae KPLN649; n = 3; BM2 minimal media; 48 hours; crystal violet
# [8] = system: Acinetobacter baumannii Ab5075; assay: Biofilm inhibition (at least 80%), A. baumannii; assay type: cell-based; conditions: n = 4, BM2 minimal media, 18-24 hours, crystal violet
# [9] = system: P. aeruginosa PAO1; assay: Biofilm inhibition (at least 80%), P. aeruginosa; assay type: cell-based, Pseudomonas aeruginosa; conditions: n = 4, BM2 minimal media, 18-24 hours, crystal violet
# [10] = system: E. coli O157:H7; assay: Biofilm inhibition (at least 80%), E. coli; assay type: cell-based, Escherichia coli; conditions: n = 3, BM2 minimal media, 18-24 hours, crystal violet
# [11] = system: P. aeruginosa LESB58; assay: Murine model of abscess infections; assay type: in vivo, murine; Pseudomonas aeruginosa
# [12] = system: MRSA USA300; assay: Murine sinusitis model, MRSA; assay type: in vivo, mouse; methicillin resistant Staphylococcus aureus
# Source text: (§3) FIGS. 15A-15I show peptides AB101-D, AB102-D and AB103-D compared to DJK5 in a murine sinusitis model of bacterial infections. MRSA USA300, nasal cavity (FIG. 15A) P. aeruginosa LESB58 (FIG. 15B and FIG. 15C, nasal cavity); MRSA USA300, lung tissue (FIG. 15D) P. aeruginosa LESB58 (FIG. 15E and FIG. 15F, lung tissue); and MRSA USA300, weight change (FIG. 15G) P. aeruginosa LESB58 (FIG. 15H and FIG. 15I, weight change).
# (§4) A murine sinusitis model of bacterial infections in the nasal cavity of mice [Alford et al. (2021). Murine model of sinusitis infection for screening antimicrobial and immunomodulatory therapies. Frontiers in Cellular and Infection Microbiology., 11, 621081] was used to determine the efficacy of D-amino acid peptides AB101-D, AB102-D and AB103-D compared to DJK5. […]. Treatment was applied either as dropwise administration of a peptide solution (20 μl) to the infected naris of a mouse (FIGS. 15A, 15B, 15D, 15E, 15G, 15H) or peptide was delivered using a Respimat® inhaler device (FIGS. 15C, 15F, 15I). Mice were monitored and weighed once daily for up to three days then euthanized prior to collection of nasal lavage fluid and lung tissue for bacterial enumeration. The limit of detection is shown by the dotted line at log CFU=2. […] Accordingly, the results indicated enhanced efficacy of D-amino acid peptides AB101-D, AB102-D and AB103-D compared to DJK5 in this murine model.
# [13] = system: P. aeruginosa LESB58; assay: Murine sinusitis model, P. aeruginosa; assay type: in vivo, mouse; Pseudomonas aeruginosa
# Source text: as §3, §4
# [14] = system: 3-day-old oral plaque (multispecies) biofilms; assay: Oral plaque biofilm model, long-term (1-3 days) exposure, dead cell volume; assay type: cell-based
# [15] = system: P. aeruginosa PAO1 biofilms; conditions: for minimum inhibitory concentration of peptide that inhibited at least 90% of biofilm growth (MBIC90): P. aeruginosa PAO1 biofilms, >95% pure peptides, BM2 minimal media; for minimum inhibitory concentration of peptide that inhibited at least 90% of biofilm growth (MBIC90) / IC50: crystal violet; for IC50: read-out: Biofilm Inhibition IC50, PAO1, 24 hours
Structure (SMILES),minimum inhibitory concentration of peptide that inhibited at least 90% of biofilm growth (MBIC90) [1] [µM],IC50 [1] [nM],IC50 [2] [nM],MIC [3] [µg/mL],MIC [4] [µg/mL],MIC [5] [µg/mL],MIC [6] [µg/mL],Peptide/Antibiotic Concentration where at least 80% of biofilm growth was inhibited [7] [µg/mL],Peptide/Antibiotic Concentration where at least 80% of biofilm growth was inhibited [8] [µg/mL],Peptide/Antibiotic Concentration where at least 80% of biofilm growth was inhibited [9] [µg/mL],Peptide/Antibiotic Concentration where at least 80% of biofilm growth was inhibited [10] [µg/mL],Decrease in abscess formation [11] [%],minimum inhibitory concentration of peptide that inhibited at least 90% of biofilm growth (MBIC90) [15] [µM],IC50 [15] [nM],also measured
"CC[C@@H](C)[C@@H](NC(=O)[C@@H](C)NC(=O)[C@@H](CCCNC(=N)N)NC(=O)[C@@H](Cc1c[nH]c2ccccc12)NC(=O)[C@@H](CCC(N)=O)NC(=O)[C@H](NC(=O)[C@@H](CCCNC(=N)N)NC(=O)[C@H](NC(=O)[C@H](NC(=O)[C@@H](CCCNC(=N)N)NC(=O)[C@H](NC(=O)[C@H](N)CCCNC(=N)N)C(C)C)C(C)C)[C@H](C)CC)C(C)C)C(N)=O [AB103-D, rvrvirvqwrai-NH2] (H-[dR][dV][dR][dV][dI][dR][dV][dQ][dW][dR][dA][dI]-NH2)",1,340,2200,2,0.8,0.8,0.8,2,1,2,1,77,8,1900,"Abscess size [11]: reduced abscess size; Bacteria in nasal cavity and lungs ([12]; MRSA USA300, 0.1 mg dose, compared to DJK5): reduced the amount of bacteria in the nasal cavity and lungs of mice much more than DJK5 treatment; Bacteria in nasal cavity and lungs ([13]; P. aeruginosa LESB58, 0.1 mg dose, compared to DJK5): reduced the amount of bacteria in the nasal cavity and lungs of mice much more than DJK5 treatment; Proportion of dead biofilm cells ([14]; 10 μg/ml, daily for 3 days, compared to DJK5 (FIG. 16A)): superior to DJK5 at killing bacteria cells; Proportion of dead biofilm cells ([14]; 1 or 5 μg/ml, daily for 3 days, compared to DJK5 (FIG. 16A)): killed more of the biofilm cells; Proportion of dead biofilm cells ([14]; all three concentrations, one day (FIG. 16C)): killed more biofilm cells than DJK5; Proportion of dead biofilm cells ([14]; all three concentrations, two days (FIG. 16B)): killed more biofilm cells than DJK5; Biofilm inhibition activity compared to DJK5 ([15]; P. aeruginosa): ≥ 4 fold"
"CC[C@@H](C)[C@@H](NC(=O)[C@@H](C)NC(=O)[C@@H](CCCNC(=N)N)NC(=O)[C@@H](Cc1c[nH]c2ccccc12)NC(=O)[C@@H](CCC(N)=O)NC(=O)[C@H](N)C(C)C)C(=O)N[C@H](CCCNC(=N)N)C(=O)N[C@@H](C(=O)N[C@H](CCCNC(=N)N)C(=O)N[C@@H](C(=O)N[C@@H](C(=O)N[C@H](CCCNC(=N)N)C(N)=O)[C@H](C)CC)C(C)C)C(C)C [DJK5, vqwrairvrvir-NH2] (H-[dV][dQ][dW][dR][dA][dI][dR][dV][dR][dV][dI][dR]-NH2)",0.5,350,1600,6,0.8,3,0.8,8,2,8,1,54,16,7400,Weight loss ([12]; MRSA USA300 infected mice): did not prevent weight loss; Weight loss ([13]; P. aeruginosa LESB58 infected mice): did not prevent weight loss
